Experimental data from PMC9960307, “Design, Synthesis, Biological Evaluation, and Molecular Dynamics Simulation of Influenza Polymerase PB2 Inhibitors” (Molecules, 2023).
Several values for one entry are separate records, joined by “and”; a condition that tells them apart may be missing. Equal values may be shown once. Read-outs that look alike come from different tables or passages of the source.

Tests used:
in vitro [1] = settings: human, microsomes, pH 7.4, Microsome T1/2, Human, human liver microsomes, 1 μM
aldehyde oxidase (AO) = target: T1, aldehyde oxidase (AO) (Homo sapiens, UniProt Q06278); assay: AO-mediated metabolic stability in human liver cytosol with/without raloxifene; assay type: in vitro ADME; settings: for sensitivity to aldehyde oxidase (AO substrate or not): human liver cytosol, in words; for half-life at 1 μM: pooled liver (hepatocyte) cytosol, pH 7.4, human liver cytoplasm, read-out: Cytoplasm T1/2, Human
T1 construct: Human liver cytosolic protein was incubated with VX-787, comp; I, and comp; II; from tissue; host or cells: pooled human liver (hepatocyte) cytosol
T1 sequence (Q06278 1-1338): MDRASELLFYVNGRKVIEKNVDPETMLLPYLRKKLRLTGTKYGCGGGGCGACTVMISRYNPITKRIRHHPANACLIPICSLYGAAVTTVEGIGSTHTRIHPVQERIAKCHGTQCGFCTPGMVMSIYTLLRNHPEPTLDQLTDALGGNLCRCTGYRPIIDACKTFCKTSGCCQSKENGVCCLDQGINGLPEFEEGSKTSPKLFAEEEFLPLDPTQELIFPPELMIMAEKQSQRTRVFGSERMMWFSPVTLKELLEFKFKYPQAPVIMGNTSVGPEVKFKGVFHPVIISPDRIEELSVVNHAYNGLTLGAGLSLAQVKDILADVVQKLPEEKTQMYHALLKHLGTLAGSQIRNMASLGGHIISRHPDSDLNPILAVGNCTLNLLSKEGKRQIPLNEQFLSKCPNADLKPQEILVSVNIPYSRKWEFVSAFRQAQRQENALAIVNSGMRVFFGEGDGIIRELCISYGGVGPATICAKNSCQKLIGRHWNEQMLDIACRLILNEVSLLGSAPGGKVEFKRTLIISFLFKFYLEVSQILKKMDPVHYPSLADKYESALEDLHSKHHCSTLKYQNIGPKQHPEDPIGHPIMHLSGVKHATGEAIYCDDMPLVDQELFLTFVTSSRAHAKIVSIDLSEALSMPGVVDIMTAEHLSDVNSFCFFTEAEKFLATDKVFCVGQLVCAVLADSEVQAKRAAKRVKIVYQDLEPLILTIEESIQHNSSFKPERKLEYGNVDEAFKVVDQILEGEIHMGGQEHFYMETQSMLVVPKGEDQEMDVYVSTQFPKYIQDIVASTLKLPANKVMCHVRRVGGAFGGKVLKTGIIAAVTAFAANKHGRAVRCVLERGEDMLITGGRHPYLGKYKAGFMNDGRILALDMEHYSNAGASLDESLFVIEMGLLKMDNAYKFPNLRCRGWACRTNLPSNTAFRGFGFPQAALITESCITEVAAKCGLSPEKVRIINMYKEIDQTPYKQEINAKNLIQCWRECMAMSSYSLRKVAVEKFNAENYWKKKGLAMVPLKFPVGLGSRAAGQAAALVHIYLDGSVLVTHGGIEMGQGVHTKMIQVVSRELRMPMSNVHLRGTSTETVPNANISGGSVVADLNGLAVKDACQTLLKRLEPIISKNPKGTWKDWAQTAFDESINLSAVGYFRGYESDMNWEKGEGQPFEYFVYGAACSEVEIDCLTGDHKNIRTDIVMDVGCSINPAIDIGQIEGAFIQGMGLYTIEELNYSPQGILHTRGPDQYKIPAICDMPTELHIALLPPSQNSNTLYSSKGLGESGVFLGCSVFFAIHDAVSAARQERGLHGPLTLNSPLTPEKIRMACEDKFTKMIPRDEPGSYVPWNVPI

[2] = target: T2, influenza A/WSN/1933 (H1N1) PB2 CBD (aa.318-486) (Influenza A virus, UniProt P03427); assay: SPR competitive binding assay (Biacore T200)
T2 construct: influenza A/WSN/1933 (H1N1) PB2 CBD (aa.318-486); purchased
T2 sequence (P03427 318-486): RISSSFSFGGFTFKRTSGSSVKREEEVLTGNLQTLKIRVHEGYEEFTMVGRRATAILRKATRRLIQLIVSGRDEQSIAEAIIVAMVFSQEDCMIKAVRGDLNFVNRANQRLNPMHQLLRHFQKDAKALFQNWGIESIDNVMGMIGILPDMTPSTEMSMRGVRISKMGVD
Experimental: Biomolecular interaction analysis based on surface plasmon resonance (SPR) assays was performed using VX-787 and comp. I and II at concentrations ranging from 20 to 0.156 µM to investigate their competitive binding affinities with PB2 (Table 1).
Commercial companies express and purify HIN1 PB2 CBD protein, which provides influenza A/WSN/1933 (H1N1) PB2 CBD (aa.318-486). Using a Biacore T200 (GE Healthcare) and a running buffer of which contains a solution of 1 × PBS-P + 0.02 M phosphate buffer, 2.7 mM KCl, 0.137 M NaCl, and 0.05% Tween 20, H1N1 PB2 was immobilized to a level of 4900 response units (RUs). Serial dilutions of small molecules were injected, ranging in concentration from 20 µM to 0.156 µM. GE Healthcare’s Biacore Evaluation Software was used to fit the resulting data to the affinity binding model.

[3] = test system: influenza virus A/Puerto Rico/8/1934 (H1N1); assay: Cytopathic effect (CPE) inhibition assay, H1N1; assay type: cell-based, influenza A/Puerto Rico/8/1934 (H1N1); settings: MDCK, 72 h, read-out: H1N1 IC50
in vitro [4] = settings: rat, microsomes, pH 7.4, Microsome T1/2, Rat, rat liver microsomes, 1 μM
in vitro [5] = settings: dog
[6] = oral dose 600 mg, bid, healthy volunteers; cited from earlier work
[7] = set-up: method as in PMID 32604406; settings: phase II clinical trial; cited from earlier work
[8] = not given; remark: listed apart in the source
[9] = test system: influenza virus A/Hong Kong/8/68 (H3N2); assay: Cytopathic effect (CPE) inhibition assay, H3N2; assay type: cell-based, influenza A/Hong Kong/8/68 (H3N2); settings: MDCK cells, MOI 0.005, 72 h, CellTiter-Glo
virus-free cells = test system: virus-free cells; set-up: method as in PMID 25547360; settings: incubated in virus-free cells; cited from earlier work
influenza virus = assay: CPE inhibition assay as summarised in the conclusions (strain not stated); assay type: cell-based; settings: unidentified influenza virus
[10] = not given; remark: listed apart in the source
[11] = with AO inhibitor raloxifene, 0 min
[12] = with AO inhibitor raloxifene, 15 min
[13] = with AO inhibitor raloxifene, 30 min
[14] = with AO inhibitor raloxifene, 60 min

O=C(O)[C@H]1C2CCC(CC2)[C@@H]1Nc1nc(-c2c[nH]c3ncc(F)cc23)ncc1F [VX-787, pimodivir, reference compound]
half-life (in vitro [1]): 5.82 h
sensitivity to aldehyde oxidase (AO substrate or not) (aldehyde oxidase (AO)): indeed an AO substrate
half-life at 1 μM (aldehyde oxidase (AO)): 2.5 h
Residual percentage in 0.5mg/ml human liver cytoplasm (aldehyde oxidase (AO); [11]): 100.00±3.54%
Residual percentage in 0.5mg/ml human liver cytoplasm (aldehyde oxidase (AO); [12]): 100.65±7.76%
Residual percentage in 0.5mg/ml human liver cytoplasm (aldehyde oxidase (AO); [13]): 97.25±1.77%
Residual percentage in 0.5mg/ml human liver cytoplasm (aldehyde oxidase (AO); without raloxifene, 0 min): 100.00±7.65%
Residual percentage in 0.5mg/ml human liver cytoplasm (aldehyde oxidase (AO); without raloxifene, 15 min): 87.02±9.00%
Residual percentage in 0.5mg/ml human liver cytoplasm (aldehyde oxidase (AO); without raloxifene, 30 min): 90.17±9.31%
Residual percentage in 0.5mg/ml human liver cytoplasm (aldehyde oxidase (AO); without raloxifene, 60 min): 71.87±6.78% and 72%
Kd ([2]; 20 to 0.156 µM, affinity binding model, read-out: SPR KD): 0.152 µM
Microsome Clh, Rat (rat liver microsomes): 1.72 mL/min/kg
Residual percentage in rat liver microsome (with NADPH, 0 min): 99.99±0.99%
Residual percentage in rat liver microsome (with NADPH, 5 min): 98.25±4.53%
Residual percentage in rat liver microsome (with NADPH, 15 min): 95.80±0.68%
Residual percentage in rat liver microsome (with NADPH, 30 min): 91.51±3.09%
Residual percentage in rat liver microsome (with NADPH, 60 min): 88.79±2.11% and 88%
Residual percentage in rat liver microsome (without NADPH, 0 min): 99.99±2.01%
Residual percentage in rat liver microsome (without NADPH, 5 min): 109.05%
Residual percentage in rat liver microsome (without NADPH, 15 min): 103.93%
Residual percentage in rat liver microsome (without NADPH, 30 min): 100.41%
Residual percentage in rat liver microsome (without NADPH, 60 min): 92.13±5.76%
IC50 [3]: < 0.003 µM
half-life (in vitro [4]): 4.16 h
CC50 (in vitro [5]): > 200 µM
safety in phase I clinical trial [6]: no safety issues
adverse effects [7]: no serious adverse effects
viral load in patients [7]: reduce the viral load
Microsome Clh, Human ([8]; human liver microsomes): 1.49 mL/min/kg
Residual percentage in human liver microsome ([8]; with NADPH, 0 min): 99.99±4.23%
Residual percentage in human liver microsome ([8]; with NADPH, 5 min): 103.84±1.21%
Residual percentage in human liver microsome ([8]; with NADPH, 15 min): 91.56±7.20%
Residual percentage in human liver microsome ([8]; with NADPH, 30 min): 101.85±8.49%
Residual percentage in human liver microsome ([8]; with NADPH, 60 min): 89.33±8.96% and 89.33%
Residual percentage in human liver microsome ([8]; without NADPH, 0 min): 100.00%
Residual percentage in human liver microsome ([8]; without NADPH, 5 min): 110.26%
Residual percentage in human liver microsome ([8]; without NADPH, 15 min): 100.78%
Residual percentage in human liver microsome ([8]; without NADPH, 30 min): 113.32%
Residual percentage in human liver microsome ([8]; without NADPH, 60 min): 107.81%
IC50 [9]: < 0.003 µM
cytotoxicity (virus-free cells): no cytotoxicity

O=C(O)C1C2CCC(CC2)C1Nc1nc(-n2c(=O)[nH]c3ncc(F)cc32)ncc1F [comp. I, (1R,2S,3S,4R)-3-((5-fluoro-2-(6-fluoro-2-oxo-2,3-dihydro-1H-imidazo[4,5-b]pyridin-1-yl)pyrimidin-4-yl)amino)bicyclo[2.2.2]octane-2-carboxylic acid]
half-life (in vitro [1]): > 13.3 h
sensitivity to aldehyde oxidase (AO substrate or not) (aldehyde oxidase (AO)): remains as a substrate
half-life at 1 μM (aldehyde oxidase (AO)): > 13.3 h
Residual percentage in 0.5mg/ml human liver cytoplasm (aldehyde oxidase (AO); [11]): 100.00±3.87%
Residual percentage in 0.5mg/ml human liver cytoplasm (aldehyde oxidase (AO); [12]): 108.27±5.07%
Residual percentage in 0.5mg/ml human liver cytoplasm (aldehyde oxidase (AO); [13]): 102.66±4.43%
Residual percentage in 0.5mg/ml human liver cytoplasm (aldehyde oxidase (AO); [14]): 112.89±1.99%
Residual percentage in 0.5mg/ml human liver cytoplasm (aldehyde oxidase (AO); without raloxifene, 0 min): 100.00±6.12%
Residual percentage in 0.5mg/ml human liver cytoplasm (aldehyde oxidase (AO); without raloxifene, 15 min): 95.20±3.72%
Residual percentage in 0.5mg/ml human liver cytoplasm (aldehyde oxidase (AO); without raloxifene, 30 min): 99.98±8.74%
Residual percentage in 0.5mg/ml human liver cytoplasm (aldehyde oxidase (AO); without raloxifene, 60 min): 93%
Residual percentage in 0.5mg/ml human liver cytoplasm (aldehyde oxidase (AO); without raloxifene, 60 min, listed as Comp I): 93.52±8.82%
Kd [2]: 1.4 µM
Residual percentage in rat liver microsome (rat, 0 min, 1 μM, pH 7.4): 100.00%
Microsome Clh, Rat (rat, 1 μM, pH 7.4): 0.53 mL/min/kg
IC50 [3]: 0.07 ± 0.02 µM
half-life (in vitro [4]): > 13.3 h
CC50 at 72 h (in vitro [5]): > 200 µM
EC50 (influenza virus): 0.04 µM
IC50 [9]: 0.04 ± 0.01 µM

N=c1[nH]c2ncc(F)cc2n1-c1ncc(F)c(NC2C3CCC(CC3)C2C(=O)O)n1 [comp. II, (1R,2S,3S,4R)-3-((2-(2-amino-6-fluoro-1H-imidazo[4,5-b]20yridine-1-yl)-5-fluoropyrimidin-4-yl)amino)bicyclo[2.2.2]octane-2-carboxylic acid]
half-life (in vitro [1]): > 13.3 h
melting point [10]: 315 to 317 °C
sensitivity to aldehyde oxidase (AO substrate or not) (aldehyde oxidase (AO)): nearly unaffected
half-life at 1 μM (aldehyde oxidase (AO)): > 13.3 h
Residual percentage in 0.5mg/ml human liver cytoplasm (aldehyde oxidase (AO); [11]): 100.00±8.74%
Residual percentage in 0.5mg/ml human liver cytoplasm (aldehyde oxidase (AO); [12]): 110.60±4.82%
Residual percentage in 0.5mg/ml human liver cytoplasm (aldehyde oxidase (AO); [13]): 107.60±7.80%
Residual percentage in 0.5mg/ml human liver cytoplasm (aldehyde oxidase (AO); [14]): 109.12±6.67%
Residual percentage in 0.5mg/ml human liver cytoplasm (aldehyde oxidase (AO); without raloxifene, 0 min): 100.00±0.44%
Residual percentage in 0.5mg/ml human liver cytoplasm (aldehyde oxidase (AO); without raloxifene, 15 min): 107.07±16.04%
Residual percentage in 0.5mg/ml human liver cytoplasm (aldehyde oxidase (AO); without raloxifene, 30 min): 108.17±9.51%
Residual percentage in 0.5mg/ml human liver cytoplasm (aldehyde oxidase (AO); without raloxifene, 60 min): barely changed
Residual percentage in 0.5mg/ml human liver cytoplasm (aldehyde oxidase (AO); without raloxifene, 60 min, listed as Comp II): 103.11±2.84%
Kd [2]: 1.67 µM
IC50 [3]: 0.09 ± 0.05 µM
half-life (in vitro [4]): > 13.3 h
CC50 at 72 h (in vitro [5]): > 200 µM
EC50 (influenza virus): 0.09 µM
Microsome Clh, Human ([8]; human, 1 μM, pH 7.4): 0.46 mL/min/kg
IC50 [9]: 0.07 ± 0.03 µM
